Data: patent US8440653B2, “3-substituted-1,4-diazepan-2-one melanocortin-5 receptor antagonists” (Mimetica Pty Ltd, priority 2008, dated 2013)

target: T1, human MC5R (hMC5R) (Homo sapiens, UniProt P33032); test: Human MC5R radioligand binding assay ([125I] NDP-MSH displacement); conditions: hMC5R membranes, [125I] NDP-MSH; tested as trifluoroacetate or hydrochloride salts or free bases; read-out: MC5R radioligand IC50
T1 construct: purchased Perkin Elmer RBXMC5M400UA
Procedure: Assessments of compound binding to human MC5R (hMC5R) by displacement of an ^125I-labeled NDP-MSH receptor ligand peptide were performed essentially as described in the data sheets produced by Perkin Elmer to accompany their frozen hMC5R membranes (Perkin Elmer catalog number RBXMC5M400UA).
Na^125I (0.5 mCi, 17.4 Ci/mg) was added to 50 μL sodium phosphate (50 mM, pH 7.4) in an eppendorf tube precoated with IODOGEN. After incubation for 10 mins the phosphate buffer containing the iodine was added to NDP-MSH (10 ul at 1 mg/mL) in a separate eppendorf tube. This was incubated for a further 10 mins. The iodinated NDP-MSH was purified by HPLC on a Zorbax SB 300 column using solvent A: 0.05% TFA and solvent B: 90% acetonitrile 0.045% TFA with a linear gradient, 0-67% B over 60 mins. The ^125I NDP-MSH eluted at 52 min after the unlabeled starting material (48 min) and was counted and stored in the freezer.
Incubation buffer: 25 mM HEPES-KOH (pH 7.0), 1.5 mM CaCl2, 1 mM MgSO4, 0.1 M NaCl, 1 mM 1,10-phenanthroline, and 1 Complete™ protease inhibitor tablet/100 mL (Roche, catalog number 1873580)
Perkin Elmer frozen hMC5 membranes: catalog number RBXMC5M400UA, 0.4 mL/vial; 400 microassays/vial. 0.78 mg/mL protein concentration
Vials of frozen membranes were thawed rapidly immediately before use, diluted with binding buffer and vortexed. Resuspended membranes were kept on ice until they were added to the wells of the plate.
Assays were performed in 96 well polypropylene plates. […] This was incubated for 1 hr at 37° C. […] Non-specific binding just under 5%.
Representative compounds of the present invention were tested for binding in the hMC5R assay as in Example 46, as listed in Table 3. The compounds were tested as their trifluoroacetate or hydrochloride salts, or as their free bases.

T1 sequence (P33032 whole entry): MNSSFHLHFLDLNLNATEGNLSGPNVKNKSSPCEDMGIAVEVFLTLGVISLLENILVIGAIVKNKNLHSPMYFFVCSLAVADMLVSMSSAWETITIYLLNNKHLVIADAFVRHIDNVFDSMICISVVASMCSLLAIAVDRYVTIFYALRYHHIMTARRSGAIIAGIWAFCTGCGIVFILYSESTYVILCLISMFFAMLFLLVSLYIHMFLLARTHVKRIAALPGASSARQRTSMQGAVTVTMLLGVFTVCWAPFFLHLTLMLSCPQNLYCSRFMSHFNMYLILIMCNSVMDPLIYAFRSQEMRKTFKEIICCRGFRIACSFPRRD

SMILES | IC50
O=C(/C=C/c1ccc(Cl)cc1)NC[C@@H]1CCN(CC(c2ccccc2)c2ccccc2)C(=O)[C@H](Cc2ccccn2)N1 [Compound 45, (E)-3-(4-chlorophenyl)-N-(((3S,5S)-1-(2,2-diphenylethyl)-2-oxo-3-(pyridin-2-ylmethyl)-1,4-diazepan-5-yl)methyl)acrylamide] | < 10000 nM
O=C(NC[C@@H]1CCN(CC(c2ccccc2)c2ccccc2)C(=O)[C@H](Cc2ccncc2)N1)c1ccc2ccccc2c1 [Compound 48, N-(((3S,5S)-1-(2,2-diphenylethyl)-2-oxo-3-(pyridin-4-ylmethyl)-1,4-diazepan-5-yl)methyl)-2-naphthamide] | < 10000 nM
O=C(NC[C@@H]1CCN(CC(c2ccccc2)c2ccccc2)C(=O)[C@H](Cc2ccccc2)N1)c1ccc2ccccc2c1 [Compound 61, N-(((3S,5S)-3-benzyl-1-(2,2-diphenylethyl)-2-oxo-1,4-diazepan-5-yl)methyl)-2-naphthamide] | < 1000 nM
O=C(/C=C/c1ccc(Cl)cc1)NC[C@@H]1CCN(CC(c2ccccc2)c2ccccc2)C(=O)[C@H](Cc2c[nH]cn2)N1 [Compound 63, (E)-N-(((3S,5S)-3-((1H-imidazol-4-yl)methyl)-1-(2,2-diphenylethyl)-2-oxo-1,4-diazepan-5-yl)methyl)-3-(4-chlorophenyl)acrylamide] | < 10000 nM
O=C(/C=C/c1ccc(Cl)cc1)NC[C@@H]1CCN(CC(c2ccccc2)c2ccccc2)C(=O)[C@H](CC(=O)Nc2ccccn2)N1 [Compound 64, (E)-3-(4-chlorophenyl)-N-(((3S,5S)-1-(2,2-diphenylethyl)-2-oxo-3-(2-oxo-2-(pyridin-2-ylamino)ethyl)-1,4-diazepan-5-yl)methyl)acrylamide] | < 1000 nM
O=C(/C=C/c1ccc(Cl)cc1)NC[C@@H]1CCN(CC(c2ccccc2)c2ccccc2)C(=O)[C@H](CC(=O)N2CCCCC2)N1 [Compound 65, (E)-3-(4-chlorophenyl)-N-(((3S,5S)-1-(2,2-diphenylethyl)-2-oxo-3-(2-oxo-2-(piperidin-1-yl)ethyl)-1,4-diazepan-5-yl)methyl)acrylamide] | < 1000 nM
CC[C@H](CN1CC[C@@H](CNC(=O)c2ccc(Cl)c(Cl)c2)N[C@@H](CCC(=O)N2CCCCC2)C1=O)c1ccccc1 [Compound 67, 3,4-dichloro-N-(((3S,5S)-2-oxo-3-(3-oxo-3-(piperidin-1-yl)propyl)-1-((S)-2-phenylbutyl)-1,4-diazepan-5-yl)methyl)benzamide] | < 10000 nM
Nc1ccccc1C[C@@H]1N[C@H](CNC(=O)/C=C/c2ccc(Cl)cc2)CCN(CC(c2ccccc2)c2ccccc2)C1=O [Compound 68] | < 1000 nM
Nc1ccccc1C[C@@H]1N[C@H](CNC(=O)c2ccc3ccccc3c2)CCN(CC(c2ccccc2)c2ccccc2)C1=O [Compound 69, N-(((3S,5S)-3-(2-aminobenzyl)-1-(2,2-diphenylethyl)-2-oxo-1,4-diazepan-5-yl)methyl)-2-naphthamide] | < 1000 nM
CCCC[C@@H]1N[C@H](CNC(=O)c2ccc3cc(Cl)ccc3c2)CCN(C[C@@H](CC)c2ccccc2)C1=O [Compound 70, N-(((3S,5S)-3-butyl-2-oxo-1-((S)-2-phenylbutyl)-1,4-diazepan-5-yl)methyl)-6-chloro-2-naphthamide] | < 1000 nM
O=C(NC[C@@H]1CCN(CC(c2ccccc2)c2ccccc2)C(=O)[C@H](Cc2ccccc2N2CCCCC2)N1)c1ccc2ccccc2c1 [Compound 71, N-(((3S,5S)-1-(2,2-diphenylethyl)-2-oxo-3-(2-(piperidin-1-yl)benzyl)-1,4-diazepan-5-yl)methyl)-2-naphthamide] | < 10000 nM
CCCCN(C)C(=O)CC[C@@H]1N[C@H](CNC(=O)c2ccc3ccccc3c2)CCN(C[C@@H](CC)c2ccccc2)C1=O [Compound 72, N-(((3S,5S)-3-(3-(butyl(methyl)amino)-3-oxopropyl)-2-oxo-1-((S)-2-phenylbutyl)-1,4-diazepan-5-yl)methyl)-2-naphthamide] | < 1000 nM
CC[C@H](CN1CC[C@@H](CNC(=O)c2ccc3ccccc3c2)N[C@@H](CCC(=O)NC2CCCCC2)C1=O)c1ccccc1 [Compound 73, N-(((3S,5S)-3-(3-(cyclohexylamino)-3-oxopropyl)-2-oxo-1-((S)-2-phenylbutyl)-1,4-diazepan-5-yl)methyl)-2-naphthamide] | < 1000 nM
CC[C@H](CN1CC[C@@H](CNC(=O)c2ccc3cc(Cl)ccc3c2)N[C@@H](CCC2CCCCC2)C1=O)c1ccccc1 [Compound 74, 6-chloro-N-(((3S,5S)-3-(2-cyclohexylethyl)-2-oxo-1-((S)-2-phenylbutyl)-1,4-diazepan-5-yl)methyl)-2-naphthamide] | < 10000 nM

Now from value to compound:

IC50 | SMILES
< 1000 nM | N=C(N)NOCC[C@@H]1N[C@H](CNC(=O)c2ccc3ccccc3c2)CCN(CC(c2ccccc2)c2ccccc2)C1=O [Compound 46, N-(((3S,5S)-1-(2,2-diphenylethyl)-3-(2-(guanidinooxy)ethyl)-2-oxo-1,4-diazepan-5-yl)methyl)-2-naphthamide]
< 1000 nM | O=C(NC[C@@H]1CCN(CC(c2ccccc2)c2ccccc2)C(=O)[C@H](Cc2cccnc2)N1)c1ccc2ccccc2c1 [Compound 47, N-(((3S,5S)-1-(2,2-diphenylethyl)-2-oxo-3-(pyridin-3-ylmethyl)-1,4-diazepan-5-yl)methyl)-2-naphthamide]
< 1000 nM | CCCC[C@@H]1N[C@H](CNC(=O)c2ccc3ccccc3c2)CCN(CC(c2ccccc2)c2ccccc2)C1=O [Compound 49, N-(((3S,5S)-3-butyl-1-(2,2-diphenylethyl)-2-oxo-1,4-diazepan-5-yl)methyl)-2-naphthamide]
< 1000 nM | NC(=O)CC[C@@H]1N[C@H](CNC(=O)c2ccc3ccccc3c2)CCN(CC(c2ccccc2)c2ccccc2)C1=O [Compound 52, N-(((3S,5S)-3-(3-amino-3-oxopropyl)-1-(2,2-diphenylethyl)-2-oxo-1,4-diazepan-5-yl)methyl)-2-naphthamide]
< 1000 nM | O=C(NC[C@@H]1CCN(CC(c2ccccc2)c2ccccc2)C(=O)[C@H](CC2CCCCC2)N1)c1ccc2ccccc2c1 [Compound 53, N-(((3S,5S)-3-(cyclohexylmethyl)-1-(2,2-diphenylethyl)-2-oxo-1,4-diazepan-5-yl)methyl)-2-naphthamide]
< 1000 nM | O=C(NC[C@@H]1CCN(CC(c2ccccc2)c2ccccc2)C(=O)[C@H](CCC(=O)N2CCCCC2)N1)c1ccc2ccccc2c1 [Compound 55, N-(((3S,5S)-1-(2,2-diphenylethyl)-2-oxo-3-(3-oxo-3-(piperidin-1-yl)propyl)-1,4-diazepan-5-yl)methyl)-2-naphthamide]
< 1000 nM | O=C(NC[C@@H]1CCN(CC(c2ccccc2)c2ccccc2)C(=O)[C@H](CCc2ccccc2)N1)c1ccc2ccccc2c1 [Compound 57, N-(((3S,5S)-1-(2,2-diphenylethyl)-2-oxo-3-phenethyl-1,4-diazepan-5-yl)methyl)-2-naphthamide]
< 1000 nM | O=C(NC[C@@H]1CCN(CC(c2ccccc2)c2ccccc2)C(=O)[C@H](CCC2CCCCC2)N1)c1ccc2ccccc2c1 [Compound 59, N-(((3S,5S)-3-(2-cyclohexylethyl)-1-(2,2-diphenylethyl)-2-oxo-1,4-diazepan-5-yl)methyl)-2-naphthamide]
< 100 nM | CCCCCC[C@@H]1N[C@H](CNC(=O)c2ccc3cc(Cl)ccc3c2)CCN(C[C@@H](CC)c2ccccc2)C1=O [Compound 75, 6-chloro-N-(((3S,5S)-3-hexyl-2-oxo-1-((S)-2-phenylbutyl)-1,4-diazepan-5-yl)methyl)-2-naphthamide]
